Measurements taken from patent US20260125346A1, “Isoquinolinone Derivatives and 4H-Quinolizinone Derivatives and Pharmaceutical Compositions Thereof for the Treatment of Disease” (BeOne Medicines I GmbH, priority 2023, published 2026).

Experiments:
[1] = target: PI3Kα (p110/p85) kinase (wild type, "WT") (Homo sapiens, UniProt P42336); test: PI3Kα (p110/p85) kinase ADP-Glo Assay; format: biochemical; conditions: 25 uM ATP
Protocol: PI3Kα (p110/p85) kinase ADP-Glo Assay. Certain compounds disclosed herein were tested for inhibition of PI3Kα (p110/p85) kinase (wild type, “WT”) in assays based on the ADP-Glo™ Kinase Assay methodology. The assays were carried out in 384-well white plates in a reaction mixture containing PI3Kα (p110/p85) kinase, 25 µM ATP, 5.35 µg/mL PI(4,5)P2:PS Lipid Kinase Substrate and […] compound in buffer containing 50 mM HEPES pH7.5, 50 mM NaCl, 3 mM MgCl2, 0.0025% BSA and 2 mM DTT. PI3Kα (p110/p85) kinase was incubated with Lipid Kinase Substrate and compound for 30 minutes at room temperature and the reaction was initiated by the addition of ATP. After reaction at room temperature for 120 minutes, ADP-Glo™ reagents were added to terminate the kinase reaction and deplete the remaining ATP according to the manufacture's instruction (Promega Corporation). After incubation at room temperature for 1 hour, Kinase Detection Reagent (prepared by reconstituting the lyophilized Kinase Detection Substrate with Kinase Detection Buffer of the kit) was added to convert the ADP to ATP and to allow for the newly synthesized ATP to be measured using a luciferase/luciferin reaction. After incubation at room temperature for 0.5 hour, chemiluminescence signals were recorded on a PHERAstar FSX plate reader (BMG Labtech). The chemiluminescence generated in this assay correlates to the amount of ADP generated in the kinase assay, indicating kinase activity. […] The IC50 for each compound was derived from fitting the data to the four-parameter logistic equation by Dotmatics.

[2] = target: PI3Kα (p110[H1047R]/p85) kinase (Homo sapiens, UniProt P42336, H1047R); test: PI3Kα (p110[H1047R]/p85) kinase ADP-Glo Assay; format: biochemical; conditions: 25 uM ATP; for selectivity: WT/H1047R: ADP-Glo Assay IC50 ratio
PI3Kα (p110[H1047R]/p85) kinase, sequence (P42336 whole entry H1047R): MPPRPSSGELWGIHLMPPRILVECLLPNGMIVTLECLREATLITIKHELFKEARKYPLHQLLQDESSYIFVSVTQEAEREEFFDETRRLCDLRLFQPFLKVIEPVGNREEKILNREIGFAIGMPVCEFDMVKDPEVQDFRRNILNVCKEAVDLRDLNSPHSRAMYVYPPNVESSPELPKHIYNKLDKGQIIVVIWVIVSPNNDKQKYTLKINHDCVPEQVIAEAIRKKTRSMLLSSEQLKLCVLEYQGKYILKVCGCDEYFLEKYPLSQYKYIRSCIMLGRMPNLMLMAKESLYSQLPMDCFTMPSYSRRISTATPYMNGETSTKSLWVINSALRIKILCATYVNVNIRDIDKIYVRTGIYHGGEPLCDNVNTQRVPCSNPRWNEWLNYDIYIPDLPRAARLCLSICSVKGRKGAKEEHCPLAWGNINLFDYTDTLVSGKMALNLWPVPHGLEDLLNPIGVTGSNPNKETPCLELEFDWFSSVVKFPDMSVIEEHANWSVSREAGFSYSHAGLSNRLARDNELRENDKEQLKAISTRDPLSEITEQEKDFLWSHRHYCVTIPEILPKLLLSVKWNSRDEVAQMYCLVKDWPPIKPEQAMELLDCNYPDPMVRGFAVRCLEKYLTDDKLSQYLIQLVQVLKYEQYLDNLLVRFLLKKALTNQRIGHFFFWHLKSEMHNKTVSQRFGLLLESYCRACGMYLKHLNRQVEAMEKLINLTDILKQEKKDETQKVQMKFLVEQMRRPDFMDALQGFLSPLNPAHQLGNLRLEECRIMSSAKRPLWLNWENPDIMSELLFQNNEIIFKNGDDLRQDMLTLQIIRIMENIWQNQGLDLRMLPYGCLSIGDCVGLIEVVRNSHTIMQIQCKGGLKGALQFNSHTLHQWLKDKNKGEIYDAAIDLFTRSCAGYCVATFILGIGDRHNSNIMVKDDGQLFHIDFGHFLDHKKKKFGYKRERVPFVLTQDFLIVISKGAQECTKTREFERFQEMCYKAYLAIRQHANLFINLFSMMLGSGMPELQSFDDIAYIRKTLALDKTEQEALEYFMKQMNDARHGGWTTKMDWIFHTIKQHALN
PI3Kα (p110[H1047R]/p85) kinase, sequence (P27986 whole entry partner): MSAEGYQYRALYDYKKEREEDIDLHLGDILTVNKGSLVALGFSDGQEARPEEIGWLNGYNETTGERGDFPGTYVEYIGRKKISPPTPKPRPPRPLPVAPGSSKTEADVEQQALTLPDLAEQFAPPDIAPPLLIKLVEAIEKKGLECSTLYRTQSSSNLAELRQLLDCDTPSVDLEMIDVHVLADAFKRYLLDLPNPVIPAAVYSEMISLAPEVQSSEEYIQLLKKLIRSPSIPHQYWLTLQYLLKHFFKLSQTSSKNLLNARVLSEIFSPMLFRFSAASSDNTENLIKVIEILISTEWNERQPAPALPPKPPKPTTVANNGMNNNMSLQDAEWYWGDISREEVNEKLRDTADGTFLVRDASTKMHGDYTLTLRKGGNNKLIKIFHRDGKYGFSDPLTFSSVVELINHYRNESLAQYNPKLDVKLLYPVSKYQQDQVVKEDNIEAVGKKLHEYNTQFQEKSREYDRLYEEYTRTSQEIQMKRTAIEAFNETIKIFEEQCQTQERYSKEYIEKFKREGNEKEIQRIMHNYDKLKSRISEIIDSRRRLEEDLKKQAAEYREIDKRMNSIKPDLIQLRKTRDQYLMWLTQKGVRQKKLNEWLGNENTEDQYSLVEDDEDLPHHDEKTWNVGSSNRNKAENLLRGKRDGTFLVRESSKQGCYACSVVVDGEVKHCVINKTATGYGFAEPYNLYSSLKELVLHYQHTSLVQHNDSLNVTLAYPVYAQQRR
Protocol: PI3Kα (p110[H1047R]/p85) kinase ADP-Glo Assay. Certain compounds disclosed herein were tested for inhibition of PI3Kα (p110[H1047R]/p85) kinase in assays based on the ADP-Glo™ Kinase Assay methodology. The assays were carried out in 384-well white plates in a reaction mixture containing PI3Kα (p110[H1047R]/p85) kinase, 25 µM ATP, 5.35 µg/ml PI(4,5)P2:PS Lipid Kinase Substrate and […] compound in buffer containing 50 mM HEPES pH7.5, 50 mM NaCl, 3 mM MgCl2, 0.0025% BSA and 2 mM DTT. PI3Kα (p110[H1047R]/p85) kinase was incubated with Lipid Kinase Substrate and compound for 30 minutes at room temperature and the reaction was initiated by the addition of ATP.
After reaction at room temperature for 120 minutes, ADP-Glo™ reagents were added to terminate the kinase reaction and deplete the remaining ATP according to the manufacture's instruction (Promega Corporation). After incubation at room temperature for 1 hour, Kinase Detection Reagent (prepared by reconstituting the lyophilized Kinase Detection Substrate with Kinase Detection Buffer of the kit) was added to convert the ADP to ATP and to allow for the newly synthesized ATP to be measured using a luciferase/luciferin reaction. After incubation at room temperature for 0.5 hour, chemiluminescence signals were recorded on a PHERAstar FSX plate reader (BMG Labtech). The chemiluminescence generated in this assay correlates to the amount of ADP generated in the kinase assay, indicating kinase activity. […] The IC50 for each compound was derived from fitting the data to the four-parameter logistic equation by Dotmatics.

[3] = test system: PI3Kα H1047R mutated cell line T-47D; test: Phospho-AKT (Ser473) Inhibition Assay (HTRF), T-47D; format: cell-based; conditions: for IC50: Homo sapiens, T47D, T-47D, 1 hour treatment, read-out: p-AKT Inhibition assay (S473) IC50 T-47D; for Selectivity: SK-BR-3/T-47D (p-AKT): p-AKT (S473) IC50 ratio
Protocol: Cell Culture Maintenance. The T-47D (ATCC, HTB-133) cell line was obtained from the American Type Culture Collection. Cells were maintained in RPMI1640 medium (Gibco, REF #22400105) supplemented with 10% Fetal Bovine Serum (Gibco, REF #10091148). Cultures were maintained in a humidified incubator at 37° C. under 5% CO2/95% air.
(§1) Phospho-AKT Inhibition Assay. HTRF Phospho-AKT (Ser473) detection kit (Cisbio, REF #64AKSPEH) was used in phosphor-AKT inhibition assay. For compound screening, PI3Kα H1047R mutated cell line T-47D and WT cell line SK-BR-3 cells were seeded at a density of 3×10^4 cells per well in 96 well plate (Costar, REF #3599) in 95 μL of assay medium (MEM medium (Gibco, REF #12561-056) with 1×NEAA (Gibco, REF #11140-050), 1 mM sodium pyruvate (Gibco, REF #11360-070), and 1 g/ml human insulin (Topscience, REF #T8221)), overnight. Compounds dissolved in 10 mM stock solutions in DMSO were serially diluted 1:3 in DMSO to generate an 11-point dilution series and plated using an INTEGRA ASSIST PLUS pipetting robot. A 20× intermediate compound dilution plate in RPMI1640 medium (200 M starting compound concentration in 2% DMSO) was then prepared. Five μL of intermediate serially diluted compounds were added to the cell plate to final concentrations ranging from […] to 0.1 nM in 0.1% DMSO. 0.1% DMSO alone was used to establish the maximum signal and GDC0077 at final concentration of 10 μM was used as a reference compound for minimum signal. After 1 hour treatment, removed medium and added 50 μL of supplemented lysis buffer (1×) immediately. Incubated for at least 30 minutes at room temperature under shaking. Transferred 16 μL of cell lysate from the 96-well cell-culture plate to a 384-white detection plate (PerkinElmer, Optiplate 384, 6007299). Added 4 μL of premixed antibody solutions prepared in the detection buffer. Incubated 4 hours at room temperature in dark. The plates were read on PHERAstar FSX Microplate reader (BMG LABTECH, Inc.) using standard HTRF settings.
(§2) Relative IC50 values were determined using luminescence units by calculating percent inhibition with respect to the in-plate “MIN” (GDC0077 reference control) and “MAX” (DMSO) controls. The data were analyzed using a 4-parameter nonlinear logistic equation (four-parameter logistic concentration-response curve): Y=bottom+[(top−bottom)/1+(X/IC50) slope] • where Y=% inhibition, X=concentration of inhibitor, bottom=minimum value of y attained by curve-fit, top=maximum value of y attained by curve-fit and slope=steepness of curve at the IC50.

[4] = test system: WT cell line SK-BR-3; test: Phospho-AKT (Ser473) Inhibition Assay (HTRF), SK-BR-3; format: cell-based; conditions: Homo sapiens; SK-BR-3, 1 hour treatment; read-out: p-AKT Inhibition assay (S473) IC50 SK-BR-3
Protocol: The SK-BR-3 (ATCC, HTB-30) cell line was obtained from the American Type Culture Collection. Cells were maintained in McCoy' 5A medium (Gibco, REF #16600108) supplemented with 10% Fetal Bovine Serum. Cultures were maintained in a humidified incubator at 37° C. under 5% CO2/95% air.
as §1, §2

PI3Kα (p110/p85) kinase (wild type, "WT"), sequence (P42336 whole entry): as the sequence (P42336 whole entry H1047R) above, with R1047H counted along it
PI3Kα (p110/p85) kinase (wild type, "WT"), sequence (P27986 whole entry partner): as the sequence (P27986 whole entry partner) above

| SMILES | IC50 [1] [µM] | IC50 [2] [µM] | selectivity: WT/H1047R [2] | IC50 [3] [µM] | IC50 [4] [µM] | Selectivity: SK-BR-3/T-47D (p-AKT) [3] |
| --- | --- | --- | --- | --- | --- | --- |
| Cc1cc([C@H](C)Nc2ccccc2C(=O)O)c2cc(-c3ccc(-c4cnn(C)c4)cc3)n(C)c(=O)c2c1 [Example 41, (S)-2-((1-(2,7-dimethyl-3-(4-(1-methyl-1H-pyrazol-4-yl)phenyl)-1-oxo-1,2-dihydroisoquinolin-5-yl)ethyl)amino)benzoic acid] | 61 | 7.18 | 8.5 | > 10 | 3.23 |  |
| Cc1cc(C(C)Nc2ccccc2C(=O)O)c2cc(-c3ccccc3)[nH]c(=O)c2c1 (centres unmarked) [Example 26, 2-((1-(7-methyl-1-oxo-3-phenyl-1,2-dihydroisoquinolin-5-yl)ethyl)amino)benzoic acid] | 6.25 | 0.158 | 40 | 0.05 | > 10 | >198 |
| Cc1cc(C(C)Nc2c(C(=O)O)nn3c2CCC3)c2cc(-c3ccccc3)n(C)c(=O)c2c1 (centres unmarked) [Example 83, 3-((1-(2,7-dimethyl-1-oxo-3-phenyl-1,2-dihydroisoquinolin-5-yl)ethyl)amino)-5,6-dihydro-4H-pyrrolo[1,2-b]pyrazole-2-carboxylic acid] | 55.5 | 0.485 | 114.5 | 6.75 | > 10 | >1.48 |
| Cc1cc(C(C)Nc2ccccc2C(=O)O)c2cc(-c3cnn(-c4cccc(C#N)c4)c3)n(C)c(=O)c2c1 (centres unmarked) [Example 29, 2-((1-(3-(1-(3-cyanophenyl)-1H-pyrazol-4-yl)-2,7-dimethyl-1-oxo-1,2-dihydroisoquinolin-5-yl)ethyl)amino)benzoic acid] | 3.8 | 0.26 | 15 | 0.107 | 2.7 | 25 |
